The conditions of series [1]: aqueous dioxane, tri-(dicyclohexylcarbinyl) borate = 1, cited from earlier work.
The conditions of series [2]: base catalysed hydrolysis, 60% aqueous dioxane at 21°; cited from earlier work.
The nature of series [3]: Pseudo three-dimensional hydrolysis test, sample layered on distilled water. In kind it is physicochemical. Conditions: sample layered on distilled water in a test tube; 20 mls sample layered on 10 mls distilled water in 19 mm test tube. Here is the method: A pseudo three-dimensional test was made by taking 10 mls of distilled water and placing in a 19 mm diameter test tube. 20 mls of sample was then layered on the water; the rate of hydrolysis was then measured. This was done by taking 2 ml samples from the test tube over time, refluxing and titrating the 2 ml samples to get the concentration. The test was with n-butyl di-n-propyl borate, which should have similar kinetic properties to tri-n-propyl borate and tri-n-butyl borate. The test was also done with tri-n-octyl borate.
It can be seen that there is an exponential difference in the half-life when changing the conditions of hydrolysis. For the commercial method of which the patent covers, the hydrolysis rate is slow enough to give consistent uptake of product in the timber and provide stable solution concentration.

Read-outs that look alike come from different tables or passages of the source.

As to `c1ccc([C@H]2CCCC[C@H]2OB(O[C@@H]2CCCC[C@@H]2c2ccccc2)O[C@@H]2CCCC[C@@H]2c2ccccc2)cc1` (relative stereo) [Tri-(cis-2-phenylcyclohexyl) borate], the “Relative rate of hydrolysis” value in series [1] is listed as 28.2.

`c1ccc([C@@H]2CCCC[C@H]2OB(O[C@@H]2CCCC[C@H]2c2ccccc2)O[C@@H]2CCCC[C@H]2c2ccccc2)cc1` (relative stereo) [Tri-(trans-2-phenylcylohexyl) borate]: the “Relative rate of hydrolysis” value in series [1] is 40.0.

`CCCCCCC(C)OB(OC(C)CCCCCC)OC(C)CCCCCC` (centres unmarked) [Tri-2-octyl borate]: in series [1], the “Relative rate of hydrolysis” value was 4.33 × 10^3. With `CCCCC(CC)OB(OC(CC)CCCC)OC(CC)CCCC` (centres unmarked) [Tri-3-heptyl borate], the “Relative rate of hydrolysis” value in series [1] is listed as 415. With `CCC(CC)OB(OC(CC)CC)OC(CC)CC` [Tri-3-pentyl borate], in series [1], the “Relative rate of hydrolysis” value is 483.

Turning to `C#CC1(OB(OC2(C#C)CCCCC2)OC2(C#C)CCCCC2)CCCCC1` [Tri-(1-ethynylcyclohexyl) borate], the “Relative rate of hydrolysis” value in series [1] was 4.29 × 10^4. Consider `CC(C)CC(C)CC(CC(C)C)OB(OC(CC(C)C)CC(C)CC(C)C)OC(CC(C)C)CC(C)CC(C)C` (centres unmarked) [Tri-(2,6,8-trimethyl-4-nonyl) borate], for which the “Relative rate of hydrolysis” value in series [1] was 4.83.

Consider `C1CCC(OB(OC2CCCCC2)OC2CCCCC2)CC1` [Tri-(2-cyclohexyl) borate], for which, in series [1], the “Relative rate of hydrolysis” value is 3.67. `CCCCC(CC)COB(OCC(CC)CCCC)OCC(CC)CCCC` (centres unmarked) [Tri-(2-ethylhexyl) borate]: the “Relative rate of hydrolysis” value in series [1] is given as 2.77 × 10^3. Consider `c1ccc(C2CCCCC2OB(OC2CCCCC2c2ccccc2)OC2CCCCC2c2ccccc2)cc1` (centres unmarked) [Tri-(2-phenylcyclohexyl) borate], for which, in series [1], the “Relative rate of hydrolysis” value was 34.1. Regarding `C1CCC(C(OB(OC(C2CCCCC2)C2CCCCC2)OC(C2CCCCC2)C2CCCCC2)C2CCCCC2)CC1` [Tri-(dicyclohexylcarbinyl) borate], the “Relative rate of hydrolysis” value in series [1] is 1. As to `CC(C)CC(CC(C)C)OB(OC(CC(C)C)CC(C)C)OC(CC(C)C)CC(C)C` [Tri-(diisobutylcarbinyl) borate], in series [1], the “Relative rate of hydrolysis” value is given as 5.86. Turning to `CC(C)CC(C)OB(OC(C)CC(C)C)OC(C)CC(C)C` (centres unmarked) [Tri-(methylisobutylcarbinyl) borate], the “Relative rate of hydrolysis” value in series [1] is given as 2430. For `CCCC1OB(OCC(CC)C(CCC)OB2OCC(CC)C(CCC)O2)OCC1CC` (centres unmarked) [Tri-(octylene glycol) biborate], in series [1], the “Relative rate of hydrolysis” value was 3.92 × 10^5. Regarding `CCCCCCOB(OCCCCCC)OCCCCCC` [Tri-hexyl borate], the “Relative rate of hydrolysis” value in series [1] is 2.02 × 10^5. Moreover, in series [2], the “Half-life” value was 2.9 s. Consider `CCCCCOB(OCCCCC)OCCCCC` [Tri-n-amyl borate], for which the “Relative rate of hydrolysis” value in series [1] was 5.87 × 10^5. Also, the “Half-life” value in series [2] is 1.0 s.

Turning to `CCCCOB(OCCCC)OCCCC` [Tri-n-butyl borate], the Half-life in series [3] is 89 h. In series [2], the “Half-life(sec.)” value is “Too fast to measure”. As for `CCCCCCCCCCCCOB(OCCCCCCCCCCCC)OCCCCCCCCCCCC` [Tri-n-dodecyl borate], the figures for the “Relative rate of hydrolysis” value in series [1] and in series [1] (listed as Tri-dodecyl borate) were 2.77 × 10^4 and 2.77×10^4, respectively. In addition, the “Half-life” value in series [2] is 21.3 s. Regarding `CCCCCCCCOB(OCCCCCCCC)OCCCCCCCC` [Tri-n-octyl borate], the “Relative rate of hydrolysis” value in series [1] was 3.67 × 10^4. Also, in series [2], the “Half-life” value was 16.0 s. As to `CCCOB(OCCC)OCCC` [Tri-n-propyl borate], the “Half-life(sec.)” value in series [2] is recorded as “Too fast to measure”. Regarding `CCC(C)OB(OC(C)CC)OC(C)CC` (centres unmarked) [Tri-s-butyl borate], the “Relative rate of hydrolysis” value in series [1] was 1.68 × 10^5. With `CCC(C)(C)OB(OC(C)(C)CC)OC(C)(C)CC` [Tri-t-amyl borate], in series [1], the “Relative rate of hydrolysis” value was 449. `CC(C)(C)OB(OC(C)(C)C)OC(C)(C)C` [Tri-t-butyl borate]: in series [1], the “Relative rate of hydrolysis” value is recorded as 1370. Take `CCOB(OCC)OCC` [Triethyl borate]: the “Half-life(sec.)” value in series [2] was “Too fast to measure”. For `COB(OC)OC` [Trimethyl borate], the “Half-life(sec.)” value in series [2] is reported as “Too fast to measure”. Regarding `CCCCCCCC/C=C\CCCCCCCCOB(OCCCCCCCC/C=C\CCCCCCCC)OCCCCCCCC/C=C\CCCCCCCC` [Trioleyl borate], the “Relative rate of hydrolysis” value in series [1] is 3.57 × 10^4. For `CCCCCCCCCCCCCCCCCCOB(OCCCCCCCCCCCCCCCCCC)OCCCCCCCCCCCCCCCCCC` [Tristearyl borate], the “Relative rate of hydrolysis” value in series [1] is on record as 2.71 × 10^4. In series [2], the “Half-life” value is 21.7 s. `CCCCOB(OCCC)OCCC` [n-butyl di-n-propyl borate] gave a Half-life in series [3] of 6.5 h.
